According to patent US6482851B1, “Synthesis of dysidiolide and uses thereof” (Sloan-Kettering Institute for Cancer Research, priority 1998, dated 2002):

How the values were obtained:
Cdc2 = Cdc2 kinase activity on immunoprecipitates from treated MCF7 cells; format: cell-based, human; settings: 50 μM, 24 hr
Protocol: Effect of a 24 hr treatment with 50 μM dysidiolide on the kinase activity of Cdk4, Cdk2 and Cdc2. Cdk were immunoprecipitated from MCF7 cell lysates obtained from cultures treated or not with dysidiolide for 24 hr. Histone H1 was used as substrate for Cdk2 and Cdc2, whereas GST-Rb was the substrate for Cdk4.
To further characterize the effects of dysidiolide on cell cycle control, experiments were conducted at the molecular level. As Cdc25s (A, B and C) are positive regulators of cyclin-dependent kinases (Cdk) (reviewed in Draetta and Eckstein, BBA 1332: M53-M63, 1997) inhibition of Cdc25 is expected to result in inhibition of Cdk activity. MCF7 cells were treated with 2 or 10 μM dysidiolide or with DMSO (controls) for 2 or 4 hr. Cell extracts were used to measure the steady-state levels of Cdc25 A and C, and Cdk activity. […] However, a decrease in the levels of Cdc25 C (but not on A) was clearly noticeable (FIG. 9B). In the next experiment MCF7 cells were treated for 24 hr with 50 μM dysidiolide or with DMSO (control) for 24 hr. […] On the other hand, at these more stringent conditions, inhibition of Cdk2, Cdk4 and Cdc2 protein kinase activities was observed (FIG. 10A and FIG. 10B).

[1] = system: PC3, DU145 and MCF7 cells; assay: cell cycle distribution by DNA content histograms (FACS); format: cell-based, human
Protocol: Cells with 2n to 4n DNA content were distributed on a DNA histogram and estimations for the percentages of cells in G1(2n), S(2n<X<4N) and G2/M (4n) were calculated using Becton-Dickinson FACS analysis software.
A 20 mM stock solution of dysidiolide was prepared in dimethylsulfoxide (DMSO) and a pilot experiment was carried out to measure the effects of the drug on the viability (Trypan blue exclusion) and flow cytometric parameters of four human cancer cell lines: the prostate lines TSU-Pr1, PC3 and DU145, and the breast line, MCF7. Cultures were treated with 0, 2, 10 and 50 μM dysidiolide for 24 hr. Dysidiolide was cytotoxic to the four lines as evidenced by the loss of Trypan blue exclusion capability and by the appearance of sub-G1 fraction on flow cytometric (FACS) analysis (FIGS. 3 and 4A-D). […] (At 50 μM dysidiolide, the level of cell death was too high in TSU-Pr1 cells to fit a valid histogram (FIG. 5A)). These cell cycle changes are consistent with arrest prior to completion of the replicative (S) phase, or with cell death occurring preferentially in cells with a 4n DNA content (G2/M population).

Cdc25 C = assay: steady-state levels of Cdc25 C in MCF7 cell lysates; format: cell-based, human
Protocol: Effect of dysidiolide on the activity of Cdk2 and on the steady-state levels of Cdc25A and Cdc25C. MCF7 cells were treated for 2 or 4 hr with 0, 2 or 10 μM dysidiolide. A) The kinase activity of Cdk2 was assayed on immunoprecipitates using histone H1 as exogenous substrate. B) The steady-state levels of Cdc25 A and C were analyzed in total cell lysates with specific antibodies (Santa Cruz Biotechnology's sc097 and sc327 antibodies were used for detection of Cdc25 A and C, respectively).
(A) Effect of 50 μM dysidiolide on the steady-state levels of Cdc25 A and C, and of other cell cycle regulators in MCF7 cells after a 24 hr treatment.
To further characterize the effects of dysidiolide on cell cycle control, experiments were conducted at the molecular level. As Cdc25s (A, B and C) are positive regulators of cyclin-dependent kinases (Cdk) (reviewed in Draetta and Eckstein, BBA 1332: M53-M63, 1997) inhibition of Cdc25 is expected to result in inhibition of Cdk activity. MCF7 cells were treated with 2 or 10 μM dysidiolide or with DMSO (controls) for 2 or 4 hr. Cell extracts were used to measure the steady-state levels of Cdc25 A and C, and Cdk activity. […] However, a decrease in the levels of Cdc25 C (but not on A) was clearly noticeable (FIG. 9B). In the next experiment MCF7 cells were treated for 24 hr with 50 μM dysidiolide or with DMSO (control) for 24 hr. […]

Cdk2 = assay: in vitro kinase assay of Cdk2 immunoprecipitated from treated TSU-Pr1 cells; format: cell-based, human; settings: 3.33 μM, TSU-Pr1, as early as 3 hours in drug
Protocol: (§1) TSU-Pr1 cells were treated for 24 hours with either DMSO or 3.33 μM dysidiolide. Cells were pulse-labeled for 30 min with bromodeoxyuridine (BrdU) and analyzed by FACS. The R@ window contains BRDU-positive, S-phase cells. Consistent with the proposed inhibitory effect of dysidiolide on the positive cell cycle regulator Cdc25. the drug inhibited the activity of cyclin-dependent kinases (Cdk). Cdk4, 6 and 2 were immunoprecipitated from DMSO- or drug-treated TSU-Pr1 cell cultures. Activity was examined in vitro kinase assays. The activity of the three Cdks was inhibited in drug-treated cells, as early as 3 hours in drug.
(§2) In vitro kinase assays of Cdk. TSU-Pr1 cells were treated with 3.33 μM dysidiolide for 0-24 hours. Samples were collected at various times and the activity of Cdk4, 6 and 2 was determined. Cdks were immunoprecipitated with specific antibodies and incubated with radiolabeled ATP plus either histH1 (for Cdk2) or GST-Rb (for Cdk4 and 6). Reactions were separated on SDS-polyacrylamide gels and the amount of phosphorylated product was determined by radiometric analysis.

Cdk6 = assay: in vitro kinase assay of Cdk6 immunoprecipitated from treated TSU-Pr1 cells; format: cell-based, human; settings: 3.33 μM, TSU-Pr1, as early as 3 hours in drug
Protocol: as §1, §2

Cdk4 = assay: in vitro kinase assay of Cdk4 immunoprecipitated from treated TSU-Pr1 cells; format: cell-based, human; settings: 3.33 μM, TSU-Pr1, as early as 3 hours in drug
Protocol: as §1, §2

MX1 tumor xenografts = MX1 tumor xenografts in nude mice; format: in vivo; settings: Sixty three mg/kg
Protocol: Dysidiolide inhibited the growth of MX1 tumor xenografts in nude mice. Sixty three mg/kg dysidiolide inhibited (A) tumor growth by 70% while (B) animal weight (and indication of overall toxicity) remained higher than 90% of controls.
Therapeutic Effects of Dysidiolide and Taxol in Nude Mice bearing MX-1. MX-1 cell 50 μg was implanted s.c. on day 0. Every other day i.v. treatments were given on day 3,5,7,9 and 11. The average tumor volume of control group on day 3, 7, 9, 11 and 13 were 62, 75, 113, 155 and 264 mm^3, respectively. Solvents: Dysidiolide [20-40 μl DMSO+100 μl (Cremophor: EtOH=1:1)+Saline] Taxol [Clinical use (Cremophor+EtOH=1:1)+Saline].

[2] = target: T1, human cdc25A protein phosphatase (Homo sapiens, UniProt P30304); settings: cited from earlier work
T1 sequence (P30304 1-524): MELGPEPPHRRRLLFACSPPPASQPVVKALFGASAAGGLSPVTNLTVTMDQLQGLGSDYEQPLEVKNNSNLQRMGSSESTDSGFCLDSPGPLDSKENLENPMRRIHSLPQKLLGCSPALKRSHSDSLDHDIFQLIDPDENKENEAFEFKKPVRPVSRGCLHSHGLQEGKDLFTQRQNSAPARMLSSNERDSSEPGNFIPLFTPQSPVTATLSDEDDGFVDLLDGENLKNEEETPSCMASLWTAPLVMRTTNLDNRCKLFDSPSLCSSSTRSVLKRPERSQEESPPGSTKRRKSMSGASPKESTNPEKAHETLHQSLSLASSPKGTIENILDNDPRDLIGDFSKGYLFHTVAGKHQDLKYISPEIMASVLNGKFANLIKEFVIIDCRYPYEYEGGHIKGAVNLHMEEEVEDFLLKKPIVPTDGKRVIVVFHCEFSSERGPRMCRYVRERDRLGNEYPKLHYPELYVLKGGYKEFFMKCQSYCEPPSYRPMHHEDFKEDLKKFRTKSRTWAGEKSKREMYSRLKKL

For C=C(C)CCC[C@@]1(C)CCC[C@H]2C1=CC[C@H](C)[C@]2(C)C[C@H](O)C1=CC(=O)O[C@@H]1O (racemic) [dysidiolide], the “Cdc2 protein kinase activity” value (Cdc2) was “inhibition”, the cell cycle distribution ([1]; MCF7 breast cancer cell line) was “loss of the G2/M peak and accumulation of cells in G1” and the cell cycle distribution ([1]; PC3, DU145 and MCF7 cells at higher doses of drug, 24 hr) was “loss of a G2/M (4 n peak)”. The “levels of Cdc25 C” value (Cdc25 C; 50 μM, 24 hr) was “reduced”, the “levels of Cdc25 C” value (Cdc25 C; 2 or 10 μM, 2 or 4 hr) was “decrease” and the Cdk2 activity (Cdk2) was “inhibited”. The Cdk6 activity (Cdk6) was “inhibited”, the Cdk4 activity (Cdk4) was “inhibited” and the “animal weight (indication of overall toxicity)” value (MX1 tumor xenografts) was “higher than 90 % of controls”. The tumor growth inhibition (MX1 tumor xenografts) was 70% and the “inhibition of human cdc25A protein phosphatase” value [2] was “potent inhibitor”.
